Data published in patent US20200253922A1, “METHODS FOR NON-[…] ADMINISTRATION OF CANNABINOIDS USING SOFT MIST […]” (Molecular Infusions, LLC, priority 2019, published 2020).
Read-outs that look alike come from different tables or passages of the source.

Tests used:
[1] = Solubility of Δ9-THC and CBD in a solution of ethanol and saline at room temperature
Description: FIG. 5 is a photograph of 2% w/w Δ9-THC and 2% w/w CBD in solutions of 10%, 20%, 30%, 40% and 50% (w/w) saline in ethanol. Δ9-THC and CBD were soluble in solutions of up to 30% and 40% (w/w) saline, respectively.
As shown in FIG. 5 the solubility of Δ9-THC and CBD in a solution of ethanol and saline was investigated. […] A 2% w/w solution of CBD was prepared at room temperature in solutions of 10%, 20%, 30%, 40%, or 50% (w/w) saline in ethanol. 2% w/w CBD was soluble at room temperature in ethanol solutions of up to 40% saline. In a separate experiment, the absolute solubility of Δ9-THC in ethanol solutions containing 30%w/w saline was determined to be ˜8%w/w (data not shown).

[2] = Terpene solubility assessment in base formulation of 10% Saline, 20% Water, 70% Ethanol; type: physicochemical; conditions: for Visual Observation: mixed overnight at room temperature
Description: The base formulation was prepared in bulk and 15 g aliquots were transferred to 22 ml scintillation vials. Pure, botanically derived terpenes were purchased from commercial sources.

[3] = acidic form; cited from earlier work
[4] = test system: patients; conditions: aerosol formulation; cited from earlier work
[5] = test system: asthmatic patients; conditions: metered dose inhaler, cited from earlier work
[6] = test system: Volunteers; test: User feedback on tolerability of Δ9-THC distillate in ethanol delivered via […]; type: in vivo, human; conditions: in 200 proof ethanol, RESPIMAT
From the text: Volunteers reported that 200 proof ethanol (placebo) delivered using the […]® device as non-irritating. It was observed that the cannabinoid, Δ9-THC in the ethanol solution, induced irritation that was dose dependent as shown in Table 1 below:
The irritation was caused by cannabinoid deposition at mucosal membranes in the throat and upper airways. The lung deposition profile is affected by multiple factor including FPF as well as user inhalation technique. For example, it has been shown that the timing of inhalation and actuation as well as the posture of the user's head can have an impact on lung deposition. It is also important to note that in vitro impactor studies commonly underestimate dose deposition in the throat and overestimate the dose deposited in the lungs (Wei et al. (2018), Journal of Aerosol Medicine and Pulmonary Drug Delivery 31(0): 1-14).

[7] = test system: subjects; conditions: 5 mg dose via pMDI; cited from earlier work
[8] = Fine particle fraction by Fast Screening Impactor, Respimat device, 28.3 L/min; type: physicochemical
From the text: An abbreviated impactor set-up, Copley Scientific's ‘Fast Screening Impactor’ (FSI), was used to determine the FPF within liquid aerosols (Mitchell et al. AAPS PharmSciTech. 2009;10(1):252-7). The FSI consisted of the universal induction port (UIP), course fraction collector (pre-separator and insert with a 5 μm diameter cut-off @ 28.3 L/min), and fine particle fraction collector consisting of a holder and glass fiber filter. The system was assembled along with a Copley LC5 pump. The flow rate was set by attaching a flow meter to the inlet of the induction port and adjusting the flow control valve on the LC5 vacuum pump until the flow rate through the system was 28.3 L/min +/−5%. Measurements were performed under ambient laboratory conditions (˜60% RH, 72° F.). The Respimat device was primed and attached to the UIP using a mouthpiece adapter. With the vacuum pump running, the device was actuated followed by a 30 second hold before turning off the vacuum pump. The Respimat device was re-primed and another dose was collected in the FSI. To determine the amount of cannabinoids deposited in each stage, the FSI was dismantled and each stage was extracted with 10 ml of methanol. Samples were diluted and HPLC performed to quantify the mass of cannabinoids deposited in the USP throat, coarse fraction collector, and fine particle fraction collector.

[9] = test system: healthy volunteers; conditions: doses greater than 2 mg, PARI nebulizer, eight healthy volunteers, all patients; cited from earlier work

C=C(C)[C@@H]1CCC(C)=C[C@H]1c1c(O)cc(CCCCC)cc1O [CBD, Cannabidiol]
observation of 2% w/w solution ([1]; 50% (w/w) saline solution): precipitate

CC12CCC(CC1)C(C)(C)O2 [Eucalyptol]
Visual Observation ([2]; Target Concentration 0.06% w/w): Clear, colorless | Visual Observation ([2]; Target Concentration 0.24% w/w): Hazy, not fully | Visual Observation ([2]; Target Concentration […] w/w): Clear, colorless

C=CC(C)(O)CCC=C(C)C (stereo not shown) [Linalool]
Visual Observation ([2]; Target Concentration 0.06% w/w): Clear, colorless | Visual Observation ([2]; Target Concentration 0.24% w/w): Hazy, not fully | Visual Observation ([2]; Target Concentration […] w/w): Clear, colorless

CC1=CCC(=C(C)C)CC1 [Terpinolene]
Visual Observation ([2]; Target Concentration 0.06% w/w): Clear, colorless | Visual Observation ([2]; Target Concentration 0.24% w/w): Hazy, not fully | Visual Observation ([2]; Target Concentration […] w/w): Clear, colorless

O=C1NS(=O)(=O)c2ccccc21 [saccharin]
pKa [3]: ~1.9

CCCCCc1cc(O)c2c(c1)OC(C)(C)C1CC=C(C)CC21 (stereo not shown) [Δ8-THC, delta-8-tetrahydrocannabinol]
cough reaction [4]: causing patients to cough

CCCCCc1cc(O)c2c(c1)OC(C)(C)[C@@H]1CCC(C)=C[C@@H]21 [Δ9-THC, Delta-9-tetrahydrocannabinol]
tolerability of aerosol delivery to the lungs ([5]; 0.2 mg): tolerable | tolerability of aerosol delivery to the lungs ([5]; doses higher than 0.2 mg): irritating and induced coughing | User experience ([6]; dose 0.35 mg): Most tolerable: Cough may occur, mild irritation of | User experience ([6]; dose 0.6 mg): Harsh: Mild cough with mild throat/upper airway | User experience ([6]; dose 1 mg): Harsh: Coughing with throat/upper airway irritation | User experience ([6]; dose 2 mg): Extremely harsh: Coughing with throat/upper airway | subjects with side effects including cough and/or chest discomfort [7]: 3 out of 11 | % dose in FPF ([8]; dose 0.35 mg): 76% | % dose in FPF ([8]; dose 0.6 mg): 76% | % dose in FPF ([8]; dose 1 mg): 77% | % dose in FPF ([8]; dose 2 mg): 78% | irritation reported after inhalation, compared to a placebo formulation [9]: significant irritation of the throat and upper respiratory tract | saline content of ethanol solution up to which 2% w/w is soluble ([1]; 2% w/w, room temperature, 10-50% (w/w) saline in ethanol tested): up to 30 % (w/w) saline | observation of 2% w/w solution ([1]; 40% and 50% (w/w) saline solutions): form a separate liquid phase (oiling out) | absolute solubility ([1]; ethanol solutions containing 30%w/w saline, data not shown): ~8 %w/w

C=C1CC/C=C(\C)CC[C@@H]2[C@@H]1CC2(C)C [β-caryophyllene]
Visual Observation ([2]; Target Concentration 0.06% w/w): Clear, colorless | Visual Observation ([2]; Target Concentration 0.24% w/w): Hazy, not fully | Visual Observation ([2]; Target Concentration […] w/w): Clear, colorless

C=CC(=C)CCC=C(C)C [β-myrcene]
solubility at the lowest percentage tested ([2]; 0.06% w/w): not soluble | Visual Observation ([2]; Target Concentration 0.06% w/w): Hazy, not fully | Visual Observation ([2]; Target Concentration 0.24% w/w): Hazy, not fully | Visual Observation ([2]; Target Concentration […] w/w): Hazy, not fully
